Source: article PMC8579695, “The Stringent Response Inhibits 70S Ribosome Formation in Staphylococcus aureus by Impeding GTPase-Ribosome Interactions” (mBio, 2021)

Test system: Era-His association to 30S ribosomes in S. aureus USA300
Test: In vivo ribosome association of Era-His to 30S in S. aureus cells
Assay type: cell-based, Staphylococcus aureus
Details: USA300 (p)ppGpp-null Δera iTET-era-His; 0.05 or 60 μg/ml mupirocin for 15 min
Text: Upon induction of the stringent response, cellular levels of (p)ppGpp increase, while concentration of GTP drops ([38]). Having observed decreased association of RA-GTPases to ribosomal subunits in vitro, we wanted to examine the interaction under more physiologically relevant conditions. To investigate RA-GTPases interactions with the ribosome in the bacterial cell, we used an era deletion mutant in a community-acquired methicillin-resistant S. aureus (CA-MRSA) USA300 strain that we had previously constructed ([10]). […] To establish whether induction of the stringent response in bacterial cells leads to a decrease in the association of Era to the 30S subunit, the era mutant was complemented with an Atet-inducible 6×His-tagged version of era using the iTET vector. […] Normalized 30S pools were analyzed for associated Era-His using α-His Western immunoblotting (Fig. 4C). Crude lysates sampled prior to loading on the sucrose gradients were also analyzed to ensure equal loading and equal expression of Era-His between samples (see Fig. S5B). […]
FIG 4 Association of Era to the 30S subunit is reduced under stringent conditions. […] RNA content was analyzed at an absorbance of 260 nm. […] Ribosomal subunits were separated, and the amount of Era-His associated in each strain was detected using HRP-conjugated α-His antibodies. […]

In the case of `C/C(=C\C(=O)OCCCCCCCCC(=O)O)C[C@@H]1OC[C@H](C[C@@H]2O[C@H]2[C@@H](C)[C@H](C)O)[C@@H](O)[C@H]1O` [mupirocin], the “ribosome association of Era-His after treatment, (p)ppGpp-null strain” value is reported as “decrease is not seen”.
